Several values for one entry are separate records, joined by “and”; a condition that tells them apart may be missing. Identical values can stand only once. Entries after “also recorded” stand apart in the source; their conditions may differ.
Experiments:
CnAOEC cells [1] = assay: Protection of CnAOEC cells against H2O2 oxidative stress, MTT viability; assay type: cell-based, canine; conditions: 2 mM H2O2; for protective effect on CnAOEC cell viability: 50 μg/ml; for protective effect on CnAOEC cell viability against H2O2: 1 to 250 μg/ml
Procedure: The plates are then centrifuged, and the formazan resulting from the reaction with MTT is solubilized in DMSO. The absorbance is measured at 570 nm, with a correction at 690 nm. The ability of the natural substances to protect cells against the adverse effects of oxidative stress was evaluated in CnAOEC cells. […] After the pretreatment period, the cells were subjected to oxidative stress (2 mM H2O2) for 24 hours and the cell viability was evaluated using the MTT test as described above. For this test, the data are means obtained from eight different experiments±Standard Deviation (SD). They were analyzed statistically using a one-way ANOVA Student t-test. The differences were considered to be significant when p<0.05.

CnAOEC cells [2] = assay: 3H-thymidine proliferation test in canine aortic endothelial cells; assay type: cell-based; conditions: for effect on CnAOEC cell proliferation: reference substances, phase 1, 48 hours exposure
Procedure: The cells are cultured in a culture medium containing CECGM (Canine Endothelial Cell Growth Medium) growth factors and previously coated with AFS (Attachment Factor Solution) agent to assist with the adherence thereof.
The confluent CnAOEC cell cultures were re-inoculated in 96-well culture plates (10,000 cells per […]). Six hours after the inoculation thereof, the cells were exposed to ^3H-thymidine (final concentration: 1 μCi/ml) and to the respective test agents for 48 hours, and were subjected to two washing steps with PBS. After a treatment with trypsin and a freeze-thaw cycle, the DNA incorporating ^3H-thymidine was captured on a glass fiber filter using a “Betaplate™ 96-bien-Cell Harvester” (Wallac, Turku).
The quantities of ^3H-thymidine incorporated in the control cells (without adding test agent) were defined as 100% and the results were expressed as a function of these control cells.
The soy isoflavones were solubilized in DMSO. The experimental samples, and those of the respective controls (DMSO free from test substance) contained a final DMSO concentration of 1%.
The statistical evaluation is based on three or four separate experiments, each being performed with 2 to 4 independent wells.

DPPH antioxidant test = assay type: biochemical
Procedure: The absorbance of the mixture is read at 540 nm every 5 minutes for 30 minutes at ambient temperature. After reduction, the color of the solution disappears (change from a violet color to a light yellow color). The reduction (referred to herein as “inhibition” or “quenching”) percentage reflects the free radical scavenging capacity of the test sample. Trolox is also used as a positive control. The results are given as a DPPH radical inhibition percentage.

[3] = Trolox Equivalent Antioxidant Capacity (TEAC) assay; assay type: biochemical; conditions: for ABTS radical inhibition: Table A, 50 μg/ml and 250 μg/ml where stated
Procedure: This method is based on the ability of antioxidant molecules to inactivate ABTS° ^+ radical with a long lifetime, compared to Trolox, a water-soluble vitamin E analog, used as the positive control. ABTS° ^+ radical is blue-green chromophore with a characteristic absorption at 734 nm.
The samples of the test substances and Trolox are diluted in PBS buffer to obtain the chosen concentrations, Then, 200 μl of ABTS° ^+ at a concentration of 7 mM is added to 50 μl of sample or Trolox solution in 96-well plates.
The absorbance of the various samples is read every 2 minutes for 6 minutes (incubation time) at ambient temperature. The results are given as a percentage of ABTS radical inhibition, and as Trolox equivalent (μM).

CnAOEC cells [4] = assay: 3H-thymidine DNA fragmentation apoptosis test in canine aortic endothelial cells; assay type: cell-based; conditions: for inhibition of the pro-apoptotic effects of free fatty acids: linoleic acid or γ-linolenic acid plus antioxidant, FIGS. 3 and 4; for effect on CnAOEC cell apoptosis: reference substances, phase 1, 24 hours exposure
Procedure: The 60 mm plates containing semi-confluent CnAOEC cells were labeled with ^3H-thymidine (1 μCi/ml) for 36 hours. These cells were then inoculated in 24-well culture plates (50,000 cells/well). After the exposure thereof to the agents under test (24 hours), the cells were treated with a lysis buffer (20 mmol/1 TrisHCl, pH 7.5, and 0.4% of Triton X-100 in PBS). The radiolabeled fragmented (apoptotic) DNA present in the supernatant was counted using a liquid scintillation analyzer. The results were then correlated with the total radioactivity incorporated in the cells (quantified after digestion of the remaining suspension with 180 μg/ml of DNase). The values calculated for the control cells (without adding test agent) were set at 100% and the results were expressed as a function of these control cells. Each time the reference substances were dissolved in ethanol (final concentration 1.5%), an identical quantity of ethanol was added to all the other wells, including the control wells.
The apoptosis tests were conducted with radiolabeled CnAOEC cells, at 60% confluence and in culture dishes previously treated with fibronectin.
The statistical evaluation is based on three separate experiments, each being performed with 2 to 4 independent wells.
The modulation of CnAOEC cell apoptosis (variation measured as a % relative to the control set at 100%) is performed in comparison to the reference substance glutathione (GSH).

CnAOEC cells [5] = assay type: cell-based, canine; conditions: dog, 24 h, 60 µM
Procedure: The MTT test was used for evaluating the viability of CNAOEC cells exposed to cytotoxic treatments (60 μM of digitonin or addition between 0.1% and 20% of DMSO or at increasing concentrations (ranging from 0.5 mM to 16 mM) of H2O2 for 24 hours so as to induce oxidative stress.
In this test, the cell damage is evaluated 24 hours after treatment with the cytotoxic substance by means of a 4-hour incubation with MTT at 0.5 mg/ml, 37° C. and 5% CO2. The plates are then centrifuged, and the formazan resulting from the reaction with MTT is solubilized in DMSO. The absorbance is measured at 570 nm, with a correction at 690 nm.
The MTT test was chosen to measure the cell viability on the basis of the data obtained after treating the cell with 60 μm digitonin (73% reduction±10%) and with 10% and 20% DMSO.
The damage to the CnAOEC cells caused by free radicals is obtained from a treatment with H2O2 at a concentration range from 0.5 mM to 16 mM.

[6] = humans; cited from earlier work
[7] = dogs; cited from earlier work

C[N+](C)(C)C[C@H](O)CC(=O)[O-].O=C(O)C(O)C(O)C(=O)O [L-carnitine, L-carnitine-L-tartrate]
protective effect on CnAOEC cell viability (CnAOEC cells [1]): not capable of maintaining CnAOEC cell viability | protective effect on CnAOEC cell viability against H2O2 (CnAOEC cells [1]): did not display a protective effect | drop in CnAOEC cell proliferation (CnAOEC cells [2]; 50 μg/ml, 48 hours): 3.75% | renewal rate (proliferation relative to control set at 100%) (CnAOEC cells [2]; 50 μg/ml, 48 hours): 96.25% | % DPPH (radical inhibition) (DPPH antioxidant test; sample 1 μg/ml): 6.74% | % DPPH (radical inhibition) (DPPH antioxidant test; sample 50 μg/ml): 4.97% | % DPPH (radical inhibition) (DPPH antioxidant test; sample 250 μg/ml): 15% and 14.94% | DPPH scavenging activity (DPPH antioxidant test; text on Table B): low | ABTS radical inhibition [3]: did not display any effect; also recorded: do not display any scavenging activity with ABTS | ABTS°+ inhibition % ([3]; sample 1 μg/ml): 0.45% | ABTS°+ inhibition % ([3]; sample 50 μg/ml): 0.37% | ABTS°+ inhibition % ([3]; sample 250 μg/ml): 0.92%

CC(=O)N[C@@H](CS)C(=O)O [N-acetylcysteine]
inhibition of the pro-apoptotic effects of free fatty acids (CnAOEC cells [4]): not completely inhibited | effect on CnAOEC cell apoptosis (CnAOEC cells [4]): inhibit apoptosis in CnAOEC cells significantly; also recorded: cell apoptosis is inhibited

NCCS(=O)(=O)O [Taurine, taurine]
protective effect on CnAOEC cell viability (CnAOEC cells [1]): not capable of maintaining CnAOEC cell viability | protective effect on CnAOEC cell viability against H2O2 (CnAOEC cells [1]): did not display a protective effect | drop in CnAOEC cell proliferation (CnAOEC cells [2]; 50 μg/ml, 48 hours): 4% | % DPPH (radical inhibition) (DPPH antioxidant test; sample 1 μg/ml): 4.95% | % DPPH (radical inhibition) (DPPH antioxidant test; sample 50 μg/ml): 10.84% | % DPPH (radical inhibition) (DPPH antioxidant test; sample 250 μg/ml): 25.09% | % DPPH (radical inhibition) (DPPH antioxidant test; sample 250 μg/ml, listed as taurine): 24% | ABTS radical inhibition [3]: did not display any effect; also recorded: do not display any scavenging activity with ABTS | ABTS°+ inhibition % ([3]; sample 1 μg/ml): −0.50% | ABTS°+ inhibition % ([3]; sample 50 μg/ml): −0.69% | ABTS°+ inhibition % ([3]; sample 250 μg/ml): −0.62%

Cc1c(C)c2c(c(C)c1O)CCC(C)(C(=O)O)O2 (stereo not drawn) [Trolox, reference compound]
% DPPH (radical inhibition) (DPPH antioxidant test; 5 μM): 4.21% | % DPPH (radical inhibition) (DPPH antioxidant test; 10 μM): 9.91% | % DPPH (radical inhibition) (DPPH antioxidant test; 15 μM): 17.00% | % DPPH (radical inhibition) (DPPH antioxidant test; 20 μM): 23.49% | % DPPH (radical inhibition) (DPPH antioxidant test; 25 μM): 28.6% | % DPPH (radical inhibition) (DPPH antioxidant test; 30 μM): 33.06% | % DPPH (radical inhibition) (DPPH antioxidant test; 40 μM): 41.18%

C[C@@H]1CC[C@@]2(OC1)O[C@H]1[C@@H](O)[C@H]3[C@@H]4CC[C@H]5C[C@@H](O[C@@H]6O[C@H](CO)[C@H](O[C@@H]7O[C@H](CO)[C@@H](O)[C@H](O[C@@H]8OC[C@@H](O)[C@H](O)[C@H]8O)[C@H]7O[C@@H]7O[C@H](CO)[C@H](O)[C@H](O[C@@H]8O[C@H](CO)[C@@H](O)[C@H](O)[C@H]8O)[C@H]7O)[C@H](O)[C@H]6O)[C@H](O)C[C@]5(C)[C@H]4CC[C@]3(C)[C@H]1[C@@H]2C [digitonin]
reduction of cell viability (MTT) (CnAOEC cells [5]): 73%

O=c1oc2c(O)c(O)cc3c(=O)oc4c(O)c(O)cc1c4c23 [ellagic acid]
plasma concentration after dietary supplementation with pomegranate extract [6]: approximately 10 μg/ml

O=c1c(-c2ccc(O)cc2)coc2cc(O)cc(O)c12 [genistein]
plasma concentrations after oral supplementation [7]: ≤ 5000 ng/mL

N[C@@H](CCC(=O)N[C@@H](CS)C(=O)NCC(=O)O)C(=O)O [glutathione]
proliferation, % of the control (CnAOEC cells [2]; 10 mmol/l, positive control): 54.75% | effect on CnAOEC cell proliferation (CnAOEC cells [2]): reduce CnAOEC cell proliferation considerably | inhibition of the pro-apoptotic effects of free fatty acids (CnAOEC cells [4]): not completely inhibited | effect on CnAOEC cell apoptosis (CnAOEC cells [4]): inhibit apoptosis in CnAOEC cells significantly; also recorded: cell apoptosis is inhibited

CCCCC/C=C\C/C=C\CCCCCCCC(=O)O [linoleic acid, reference compound]
effect on CnAOEC cell proliferation (CnAOEC cells [2]): inhibit endothelial proliferation completely; also recorded: reduce CnAOEC cell proliferation considerably | effect on CnAOEC cell apoptosis (CnAOEC cells [4]): very strong pro-apoptotic reaction

CCCCC/C=C\C/C=C\C/C=C\CCCCC(=O)O [γ-linolenic acid, reference compound]
effect on CnAOEC cell proliferation (CnAOEC cells [2]): inhibit endothelial proliferation completely; also recorded: reduce CnAOEC cell proliferation considerably | effect on CnAOEC cell apoptosis (CnAOEC cells [4]): very strong pro-apoptotic reaction

VEGF
effect on CnAOEC cell proliferation (CnAOEC cells [2]): no pro-proliferation effect on CnAOEC cells; also recorded: did not induce the same response in CnAOEC cells; also recorded: have no influence on CnAOEC cell proliferation

bFGF: basic Fibroblast Growth Factor, vascular growth factor reference
effect on CnAOEC cell proliferation (CnAOEC cells [2]): no pro-proliferation effect on CnAOEC cells; also recorded: did not induce the same response in CnAOEC cells; also recorded: have no influence on CnAOEC cell proliferation

Reference: patent US20140335180A1, “PRODUCTS FOR ORAL ADMINISTRATION COMPRISING EXTRACTS OF PUNICA GRANATUM (POMEGRANATE), INTENDED FOR A PET, AND APPLICATIONS OF SAME” (VIRBAC SA, priority 2011, published 2014)
